Laboratory results from EP1785722A1, “Microbial, viral and mammalian susceptibility to agents that affect cell growth and metabolism, and compatibility of compounds” (Stratos Bio Ltd., priority 2005, dated 2007).

Tests used:
B. pumilus = test: MIC determination against B. pumilus; type: cell-based, Bacillus pumilus
Method: (§1) However when the concentration of organisms was 5.1 x 10^6 cfu/ml which was the inoculum used in the microcalorimetric incubations the MIC was increased to 2 µg/ml; the effect was also bacteriostatic.

Bacillus pumilus = test: Flow microcalorimetry (p-t curves) of growing Bacillus pumilus; type: cell-based
Excerpt: (§2) • a) For B. pumilus a simple glucose/salts medium was employed with a glucose concentration of 0.1 % w/v. • b) For Bord. bronch. The above salts medium was used with the addition of nicotinic acid, methionine and glutamic acid. Glutamic acid was used at a concentration of 0.2% w/v. • c) For M. flavus a semidefined medium was employed, using the same salts as a B. pumilus but also Na-citrate, biotin and protease peptone. In the calorimeter a concentration of 0.4% protease peptone was used. All medium constituents (except protease) were analytical reagents. The calorimetric medium was therefore a final concentration of 100ml of either solution a, b or c freshly autoclaved for 15 mins exactly at 121°C, 151b/sq inch. Glucose was added to the appropriate solution after autoclaving.
(§3) To the vertical face of the vessel close to its base, equidistantly spaced around the circumference, ports were fitted for an oxygen electrode and for sampling/inoculation. The fermenter was closed with a flat flanged glass lid which had five ports accommodating respectively, gas inlet tube, gas exhaust (via air condenser), inlet and outlet flow-lines to and from the calorimeter. The fermenter and lid was sealed with a p.t.f.e. gasket and clamped with a metal clip. The fermenter was placed on a magnetic stirring unit in a water jacket which allowed circulation of the thermostatically controlled water at 30°C or 37°C. The fermenter which contained a Teflon coated magnetic stirring bar, was sterilised by autoclaving.
(§4) For a typical calorimetric incubation the medium was passed through the calorimetric vessel at the same flow rate and temperature as those used in the experiment to establish a steady baseline deflection. The following operations then took place to a strict timetable. The liquid nitrogen stored ampoule was thawed at 38°C for 3 min and then stirred for 20 sec on a whirlimixer. The bacterial suspension (0.5-1.5ml) volumes was inoculated into the medium (100ml) two minutes after completion of thawing. A Gilson automatic pipette was used for inoculation. The calorimeter inlet flow-line was placed in the incubation medium 30 seconds after inoculation. The flowing incubation medium reached the calorimetric vessel two min after inlet flow-line insertion. At this time the recording of the p-t curves was started. Eight min after inoculation the outflow from the calorimeter was returned to the fermenter (after the "baseline" medium had run to waste but before the inoculated medium ran to waste) thus making a closed system. Aeration was started as soon as the inlet tube was inserted in the fermenter. Microbiological purity of the culture was checked by plating out a sample of the culture at the end of each incubation on nutrient agar (lab M).
(§5) The output of calorimetric experiments is a plot of power (energy evolution per unit of time) as a function of time. The unit of power (p) is the Watt (W) and the unit of time is the hour (h). In some experiments seconds (s) were used as time unit.
as §1

Micrococcus flavus [1] = test: MIC / MBC against Micrococcus flavus; type: cell-based; conditions: as printed in table heads
Micrococcus flavus [2] = test: Flow microcalorimetry (p-t curves) of growing Micrococcus flavus; type: cell-based; conditions: single antibiotic at its MIC (4 ug/ml Neo; 2ug/ml POLB)
Excerpt: as §2, §3, §4, §5
This point occurred at an increase in deflection of 29.5% from the baseline value.

[3] = test system: Bordetella Bronchiseptica; test: MIC / MBC against Bordetella bronchiseptica; type: cell-based
[4] = test system: Bordetella Bronchiseptica; test: Flow microcalorimetry (p-t curves) of growing Bordetella bronchiseptica; type: cell-based
Excerpt: as §2, §3, §4, §5
After successful freezing of Bord. bronch p-t curves for growth in different concentrations of glutamic acid from 0.1%-0.5% were obtained. It was concluded that a medium containing 0.2% glutamic acid would be sufficient for a good deflection in the microcalorimeter minimising the possibility of the bacteria clogging in the microcalorimetric cell or in the teflon tubes leading to and from the microcalorimetric cell. A pH of 7 was used in all the following experiments as this is the optimum pH for polymyxin - lipid binding.
It was of vital importance to maintain a constant oxygen tension; this was achieved by using saturation concentrations of oxygen. It was decided to use the height of the small peak as full scale deflection for the antibiotic assay as the increase in power was exponential up to this point and the peak occurred at a convenient time. This choice of assay point was empirical. The inoculum was 1.1 ± 0.06 x 10^8 cfu/ml for all the microclalorimetric incubations. […]

E. coli = test: MIC / MBC against E. coli; type: cell-based
respiring E.coli = test: Microcalorimetry of respiring E. coli in glucose buffer; type: cell-based
Method: E.coli was suspended in 10% DMSO prior to freezing and the viable counts were for batch 1: pre-freeze: 4.0 ± 0.6_ x 10^10 cfu/ml and post -freeze 2.0 ± 0.44 x 10^10 cfu/ml and for batch 2: pre-freeze: 3.45 ± 0.58 x 10^10 cfu/ml and post-freeze 2.93 ± 0.43 x 10^10 cfu/ml. The freezing rate for both batches was 20°C/min the survival rate was 50% for batch 1 and 85% for batch 2. These differences may have been due to batch 1 being kept for 24h at 4°C before being frozen.
The respiration experiments were carried out in glucose buffer at different pH. The respiration curves obtained from batch 1 (inoculum 2 x 10^10 cfu/ml) and batch 2 Inoculum 3.2 x 10^10 cfu/ml) were essentially similar and a mean was used as a reference). The respiration experiments were carried out at pH 7 for polymyxin and Znbacitracin and at pH 8 for neomycin. No differences in p-t control curves could be observed at pH 7 or pH 8.
The p-t curves rose and reached a plateau as has been observed for respiration of yeasts and some 20 min later fell to a lower plateau value. Prior incubation of the cells in the buffered glucose for periods up to 20 min before presentation to the calorimeter could reduce or entirely remove this effect.

[5] = 0.25 ug/ml added at 0 % of p-t curve

Compound: NC[C@@H]1O[C@H](O[C@H]2[C@@H](O)[C@H](O[C@@H]3[C@@H](O)[C@H](N)C[C@H](N)[C@H]3O[C@H]3O[C@H](CN)[C@@H](O)[C@H](O)[C@H]3N)O[C@@H]2CO)[C@H](N)[C@@H](O)[C@@H]1O.O=S(=O)(O)O [neomycin sulphate, Neomycin sulphate]
- effect at MIC (B. pumilus; 5.1 x 10^6 cfu/ml): bacteriostatic
- MIC (B. pumilus; 5.1 x 10^6 cfu/ml, inoculum used in the microcalorimetric incubations): 2 µg/mL
- MIC (B. pumilus; inoculum of 1x10^5 cfu/ml): 0.1 µg/mL
- effect at MIC (B. pumilus; inoculum of 1x10^5 cfu/ml): bacteriostatic
- MIC (B. pumilus; listed as NEO): 1 µg/mL
- Comments (Bacillus pumilus; [5]): No effect
- Observed effect on p-t curves Related to standard growth curve (Bacillus pumilus; [5]): 1X standard curve
- Comments (Bacillus pumilus; 0.5 ug/ml added at 0 % of p-t curve): Inhibition of RNA synthesis
- Comments (Bacillus pumilus; 1 ug/ml added at 10 % of p-t curve): Growth promoting effect potential stimulation of RNA synthesis
- Observed effect on p-t curves Related to standard growth curve (Bacillus pumilus; 1 ug/ml added at 10 % of p-t curve, at 11 h): 1.2 X signal at 11 h
- Comments (Bacillus pumilus; 1 ug/ml added at 15 % of p-t curve): Growth promoting effect potential stimulation of RNA synthesis
- Observed effect on p-t curves Related to standard growth curve (Bacillus pumilus; 1 ug/ml added at 15 % of p-t curve, at 11 h): 1.2 X signal at 11 h
- Comments (Bacillus pumilus; 1 ug/ml added at 25 % of p-t curve): Growth promoting effect potential stimulation of RNA synthesis
- Observed effect on p-t curves Related to standard growth curve (Bacillus pumilus; 1 ug/ml added at 25 % of p-t curve, at 11 h): 5X signal at 11 h
- Comments (Bacillus pumilus; 2 ug/ml added at 10 % of p-t curve): Growth promoting effect potential stimulation of RNA synthesis
- Observed effect on p-t curves Related to standard growth curve (Bacillus pumilus; 2 ug/ml added at 10 % of p-t curve, at 11 h): 1.2 Xsignal at 11 h
- power output (Bacillus pumilus; 0.5 and 1 x MIC (1-2 µg/ml) added after an increase of 10% of full scale deflection): the same effect was observed
- power output (Bacillus pumilus; 0.5 x MIC (1µg/ml) added after a 25% increase power output): massive power output 2-4h after addition
- Comments (Bacillus pumilus; > 2 ug/ml added at 10 % of p-t curve): Inhibition of RNA synthesis Possible to achieve linear dose-response at 7 hours after addition of antibiotic to the bacterial culture, after 11 hours heat-out put levels off b ut do not return to baseline indicating a bacteriostatic effect and maximum inhibition of RNA synthesis
- Observed effect on p-t curves Related to standard growth curve (Bacillus pumilus; > 2 ug/ml added at 10 % of p-t curve, at 11 h): 0.75 or less at 11 h
- power output (Bacillus pumilus; added after an increase in power output of 15% of full scale deflection): only marginally larger than that observed for the normal growth curve
- power output (Bacillus pumilus; higher concentrations of antibiotic): a decrease in power output was observed
- concentrations at which an increased heat output can be observed (Bacillus pumilus; organism not given): < 1 µg/mL
- MIC (Micrococcus flavus [1]): 4 µg/mL
- Observed effect on p-t curves (Micrococcus flavus [2]): No effect on p-t curve
- MIC ([3]; as printed in table heads): 0.25 µg/mL
- Observed effect on p-t curves ([4]; single antibiotic at its MIC (0.25ug/ml Neo; 100ug/ml ZNB), added at 50 % of p-t curve): No effect on p-t curve
- MBC (E. coli; as printed in table head): 5900 µg/mL
- MIC (E. coli; as printed in table head): 5900 µg/mL
- MIC (E. coli; text): 500 µg/mL
- effect on power (respiring E.coli; Fig. 16): an increase in power
- Comments (respiring E.coli; NEO 500 ug/ml): Consistent with increased rate of RNA synthesis
- Observed effect on p-t curves (respiring E.coli; NEO 500 ug/ml, pH 8): Increase in heat output
- heat output (respiring E.coli; all concentrations): increased heat output
- Linear dose-response between (respiring E.coli; table): 10 to 100 µg/mL
- linear relationship between dose and the reciprocal of increase in response from the control curve (respiring E.coli; text): 20 to 100 µg/mL

Compound: Polymyxin B sulphate
- MIC (B. pumilus; as printed in table heads): 20 µg/mL
- time until growth was inhibited completely (Bacillus pumilus; 20ug/ml POLB, pH 8.00): Within 9 hours growth was inhibited completely
- MIC (Micrococcus flavus [1]): 2 µg/mL
- Observed effect on p-t curves (Micrococcus flavus [2]): Slightly delayed peak
- MBC ([3]; as printed in table head): Ug/ml MIC & MBC 2 ug/ml
- MIC ([3]; as printed in table heads): Ug/ml MIC & MBC 2 ug/ml
- MIC ([3]; listed as POL): 2 µg/mL
- MBC ([3]; text): 2 µg/mL
- MIC ([3]; text): 2 µg/mL
- concentration above which the declines were identical [4]: > 3.5 x MIC
- time to observable response after addition [4]: ≤ 5 min
- Observed effect on p-t curves ([4]; 0.07 ug/ml added at 18 % of p-t curve): No effect on growth curve
- response of p-t curve ([4]; 0.033 x MIC (0.07 µg/ml)): no response to the antibiotic was observed
- Comments ([4]; 0.35 -2 ug/ml added at 18 % of p-t curve): All curves return to baseline confirmed bacteriocidal action
- Observed effect on p-t curves ([4]; 0.35 -2 ug/ml added at 18 % of p-t curve, CV 2.5%): Linear log dose response 10 min after addition of antibiotic CV 2.5%
- time to sharp decline in heat output after addition ([4]; 0.5 x MIC): ≤ 10 min
- mode of action ([4]; at MIC values): bactericidal
- MBC (E. coli; as printed in table head): 6.3 µg/mL
- MIC (E. coli; as printed in table head): 6.3 µg/mL
- MBC (E. coli; text): 6.3 µg/mL
- MIC (E. coli; text): 6.3 µg/mL
- sensitivity of the assay (respiring E.coli): 3 µg/mL
- effect on p-t curve (respiring E.coli; Fig. 15): reduced the initial peak height and thereafter the p-t curve returned to baseline
- Comments (respiring E.coli; POLB 6.3 ug/ml): Bacteriocidal action demonstrated
- time to return to baseline (after reduced height of p-t curve initially) (respiring E.coli; POLB 6.3 ug/ml, pH 7): Reduced height of p-t curve initially and returned to baseline within 1 hour
